Measurements: patent publication US6706767B2, “Therapeutics for chemokine mediated diseases” (Chemokine Therapeutics Corporation, priority 2000, dated 2004)
Like-named read-outs stand apart in the source and are kept apart here.

Assays:
[1] = test system: neutrophils; experiment: fMLP induced neutrophil activation (chemiluminescence); type: cell-based; conditions: 0.3 μg/ml and 1 μg/ml
Description: (§1) In accordance with this aspect of the invention, tricyclic comounds such as phenanthrene-9,10-dione or corresponding salts may be used for the treatment of inflammatory diseases related to gout and arthritis.

[2] = test system: THP-1 cells and T-cells; experiment: Cytoplasmic calcium rise induced by the compound itself; type: cell-based; conditions: analogous to native MCP-1
Description: (§2) Fura-2,AM loaded THP-1 cells were incubated with M163 for 30 min prior to induction of [Ca^2+]i mobilization by 20 nM MCP-1. Cells were also evaluated in the presence of fMLP (1 mM)/cytochalasin B (0.5 mM) or M163 (600 ng/ml) as positive and negative controls respectively. […] The values represent the mean +/− one S.D.

[3] = test system: EAE mouse model; experiment: EAE mouse model of Multiple Sclerosis, clinical scores; type: in vivo; conditions: 1 mg/kg/day for 14 days, compared to control saline injection
Description: Experimental autoimmune encephalomyelitis (EAE) is a CD4^+ Th1-mediated inflammatory demyelinating disease of the central nervous system (CNS) that serves as a model for multiple sclerosis. It has previously been disclosed that monocyte chemotactic protein-one (MCP-1) regulates acute and relapsing autoimmune encephalomyelitis, and that MCP-1 production in the central nervous system is correlated with relapsing EAE development. In this example, the EAE mouse model for MS is used, in which the disease is induced with Bordetella pertussis toxin (Claude C. A. et. al., (1975) Journal of Immunology 114(5): 1537-1540 and Hosseimi, H. et. al., (2000) Neurology 54 (7): A166, An abstract presented in April 2000 on “Inhibition of proteosome prevents clinical signs in an experimental model of Multiple Sclerosis”). A dose of 1 mg/kg/day in a volume of 100 μl saline was given to animals for 14 days, and individual animals were observed daily and graded accordingly to their clinical severity as follows: grade 0, no abnormality; grade 1, limp tail; grade 2, limp tail and partial hind limb weakness; grade 3, complete hind limb paralysis; grade 4, complete hind limb paralysis and fore limb weakness; grade 5, death.

[4] = biological target: T1, CXCR2 (Homo sapiens, UniProt P25025); experiment: Inhibition of IL-8 binding to CXCR2; conditions: FIG. 8
T1 sequence (P25025 1-360): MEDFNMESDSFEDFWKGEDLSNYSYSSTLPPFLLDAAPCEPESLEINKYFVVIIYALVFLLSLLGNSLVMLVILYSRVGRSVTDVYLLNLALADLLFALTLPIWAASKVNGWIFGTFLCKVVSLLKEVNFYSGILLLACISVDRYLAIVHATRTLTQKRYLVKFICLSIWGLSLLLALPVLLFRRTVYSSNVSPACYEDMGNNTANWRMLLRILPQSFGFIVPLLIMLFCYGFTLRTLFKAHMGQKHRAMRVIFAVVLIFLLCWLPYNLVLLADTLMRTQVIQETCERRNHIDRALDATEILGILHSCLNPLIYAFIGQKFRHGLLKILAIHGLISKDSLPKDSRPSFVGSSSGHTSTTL

[5] = test system: THP-1 cells; experiment: Inhibition of MCP-1 induced [Ca2+]i mobilization in Fura-2,AM loaded THP-1 cells; type: cell-based; conditions: Homo sapiens, 0.5 h, 30 min incubation
Description: as §2

[6] = test system: human neutrophils; experiment: Inhibition of IL-8 induced [Ca2+]i mobilization in human neutrophils; type: cell-based; conditions: 30 minutes incubation, 10 nM IL-8
Description: Freshly isolated neutrophils loaded with Fura-2,AM were incubated with phenanthrene-9,10-dione for 30 minutes prior to induction of [Ca^2+]i mobilization by 10 nM IL-8. Values represent the increase in mobilization over basal levels (wavelength averaging at approximately 176 nM) and are the mean +/− one S.D. of n=3 experiments.

[7] = biological target: T2, CXCR1 (Homo sapiens, UniProt P25024); experiment: Inhibition of IL-8 binding to CXCR1; conditions: FIG. 8
T2 sequence (P25024 1-350): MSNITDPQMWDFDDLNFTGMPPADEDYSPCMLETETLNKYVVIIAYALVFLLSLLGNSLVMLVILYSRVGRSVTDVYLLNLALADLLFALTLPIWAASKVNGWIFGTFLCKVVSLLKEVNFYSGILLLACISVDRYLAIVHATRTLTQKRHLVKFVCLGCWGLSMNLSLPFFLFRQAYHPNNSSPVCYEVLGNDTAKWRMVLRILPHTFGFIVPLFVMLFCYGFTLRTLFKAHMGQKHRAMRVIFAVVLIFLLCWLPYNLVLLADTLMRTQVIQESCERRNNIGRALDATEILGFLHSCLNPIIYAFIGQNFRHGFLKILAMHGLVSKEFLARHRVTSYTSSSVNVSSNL

[8] = test system: neutrophils; experiment: fMLP induced neutrophil calcium level; type: cell-based; conditions: FIG. 6, after 15 seconds stimulation
[9] = test system: neutrophils; experiment: CPPD crystal induced neutrophil activation (chemiluminescence); type: cell-based; conditions: 0.3 μg/ml and 1 μg/ml
Description: as §1

[10] = biological target: MCP-1 receptor (CCR-2) (Homo sapiens, UniProt P41597); experiment: Inhibition of I125-labeled MCP-1 binding to the MCP-1 receptor (CCR-2); conditions: I125 labeled MCP-1 as competitor; FIG. 1
Sequence of MCP-1 receptor (CCR-2) (P41597 whole entry, species assumed): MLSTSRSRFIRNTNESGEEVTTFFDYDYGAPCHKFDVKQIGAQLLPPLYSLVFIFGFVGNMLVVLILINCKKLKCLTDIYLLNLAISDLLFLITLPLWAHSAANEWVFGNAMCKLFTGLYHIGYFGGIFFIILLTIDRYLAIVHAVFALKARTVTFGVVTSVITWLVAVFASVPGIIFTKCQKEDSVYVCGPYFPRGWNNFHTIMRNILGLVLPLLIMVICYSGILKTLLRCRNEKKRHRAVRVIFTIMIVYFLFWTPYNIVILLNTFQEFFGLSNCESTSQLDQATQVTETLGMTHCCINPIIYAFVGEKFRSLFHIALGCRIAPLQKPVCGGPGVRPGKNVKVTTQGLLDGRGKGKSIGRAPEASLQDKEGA
Description: A dose response of phenanthrene-9,10-dione at different concentration in comparison to MCP-1.
This example discloses the ability of tricyclic compounds of the invention, such as phenanthrene-9,10-dione (compound 1), for inhibiting binding to the MCP-1 receptor (CCR-2). The binding studies were conducted using I^125 labeled MCP-1 as competitor. […] In FIG. 1, the results of competition studies are plotted using a standard scatchard plot analysis.

O=C1C(=O)c2ccccc2-c2ccccc21 [phenanthrene-9,10-dione]
inhibition of fMLP induced neutrophil activation [1]: strong inhibition | effect on cytoplasmic calcium concentration [2]: induced a rapid, transient rise in cytoplasmic calcium concentration | effect on clinical scores [3]: beneficial effect on the clinical scores | inhibitory effect on the binding of IL-8 to CXCR2 [4]: inhibitory effect | IC50 ([5]; 20 nM MCP-1, read-out: IC50, MCP-1 associated induction of [Ca2+]i mobilization): 0.25 µg/mL | IC50 ([5]; 20 nM MCP-1, value in parentheses, read-out: IC50, MCP-1 associated induction of [Ca2+]i mobilization): 120 nM | suppression of calcium level (IL-8 induced [Ca2+]i mobilization) ([6]; 3 μM): about 63% | IC50 ([6]; Neutrophil, 0.5 h): 3000 nM | inhibitory effect on the binding of IL-8 to CXCR1 [7]: inhibitory effect | inhibition of intracellular calcium ion release [8]: effective inhibitor of intracellular calcium ion release | inhibition of CPPD crystal induced neutrophil activation [9]: strong inhibition | inhibitory effect on the binding of MCP-1 to CCR-2 [10]: inhibitory effect
